Columns and labels:
A549 = assay: MTT cytotoxicity on various cancer cells (Table 1); format: cell-based, human; settings: lung cancer cell line A549; MTT, 48 h
Procedure: (§1) To evaluate anticancer activities of the produced peptides on various types of cancer cells, MTT analysis was performed. Human prostate cancer cell lines (LNCaP, PC3, and DU145), human breast cancer cell lines (MDA-MB-231 and MCF-7), lung cancer cell line (A549), and ovarian cancer cell line (SKOV3) were cultured in RPMI media supplemented with 1% penicillin/streptomycin and 1% fetal bovine serum (all from Life Technologies, Grand Island, NY). The cells were seeded in 96-well plates containing 100 μL of growth media for 24 h. The media were removed, and then 100 μL of the peptide (solvent DPBS) at each concentration was added to each well and incubated at 37° C. for 48 h. After incubation for 48 h, 100 μL of MTT reagent was added to each well. The cells were incubated at 37° C. for 4 h, and then the supernatant was removed. Formazan crystals were dissolved in 100 μL of DMSO with gentle stirring at 37° C. for 10 min. The absorbance per well was measured at 540 nm using a VERSA max microplate reader (Molecular Devices Corp.).

DU145 = assay: MTT cytotoxicity on various cancer cells (Table 1); format: cell-based, human; settings: prostate cancer cell line DU145; MTT, 48 h
Procedure: as §1

PC3 = assay: MTT cytotoxicity on various cancer cells (Table 1); format: cell-based, human; settings: prostate cancer cell line PC3; MTT, 48 h
Procedure: as §1

SKOV3 = assay: MTT cytotoxicity on various cancer cells (Table 1); format: cell-based, human; settings: ovarian cancer cell line SKOV3; MTT, 48 h
Procedure: as §1

[1] = test system: AKT, ERK1/2, and mTOR pathways; assay: Western blot of hTERT-regulating signaling proteins in LNCaP (FIG. 13); format: cell-based, human; settings: LNCaP cells
Procedure: The cells and tumor tissues were homogenized using the PRO-PREP™ extraction solution (iNtRON Biotechnology, Seongnam, Korea). After incubation, the homogenate was centrifuged at 16,000×g for 20 min at 4° C., and the supernatant was collected for western blot analysis. Subsequently, an equivalent quantity of protein was separated using sodium dodecyl sulfate polyacrylamide gels and transferred onto a polyvinylidene difluoride (PVDF) membrane. The PVDF membranes were incubated with the primary antibodies overnight at 4° C., washed with tris-buffered saline, and then incubated with HRP-conjugated anti-mouse or anti-rabbit antibodies. The bands were visualized using a ChemiDoc imaging system (Bio-Rad, Hercules, CA, USA). The band intensities were determined using an Image J software.
Furthermore, a western blot analysis assessed the expression levels of signaling pathway proteins that regulate hTERT in LNCaP cells treated with HS1002. […] In addition, the expression of AKT, ERK1/2, and mTOR was unchanged in both the control and HS1002 groups (FIG. 13).

HEK293-GnRHR cells [2] = molecular target: T1, HEK293-GnRHR cells (Homo sapiens, UniProt P30968); assay: Intracellular calcium flux assay; format: cell-based
T1 construct: GFP; expressed in transfected cells
T1 sequence (P30968 1-328): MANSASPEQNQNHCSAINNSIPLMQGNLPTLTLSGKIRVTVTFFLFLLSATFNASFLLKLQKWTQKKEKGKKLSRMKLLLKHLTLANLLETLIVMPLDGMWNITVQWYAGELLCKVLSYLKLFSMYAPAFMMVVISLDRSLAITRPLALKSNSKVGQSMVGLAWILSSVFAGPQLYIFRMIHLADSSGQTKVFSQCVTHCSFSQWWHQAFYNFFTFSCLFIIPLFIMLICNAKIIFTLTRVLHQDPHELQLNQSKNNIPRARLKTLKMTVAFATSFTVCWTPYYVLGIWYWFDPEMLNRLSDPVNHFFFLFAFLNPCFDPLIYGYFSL
Procedure: (§2) Human embryonic kidney cell line (HEK293), and mouse cancer cell lines (MC38, 4T1) were purchased from the American Type Culture Collection (Manassas, VA, USA). All cell lines were grown in Dulbecco's Modified Essential Medium (DMEM) or Roswell Park Memorial Institute (RPMI) 1640 supplemented with 10% FBS, 100 U/mL penicillin, and 100 μg/mL streptomycin (WelGENE, Daegu, South Korea) in a humidified atmosphere of 5% CO2 at 37° C. To obtain GnRHR-overexpressing HEK293 (HEK293-GnRHR) cells, transfection of the pCMV-AC-GFP-GnRHR vector (HEK293-GnRHR) was performed using Lipofectamine™ 3000 according to the manufacturer's instructions (Cat. 100022052, Thermo Fisher Scientific, Waltham, MA, USA). Colonies of geneticin-resistant cells were selected by adding G418 (800 μg/mL, Sigma) to the culture medium. The HEK293-pCMV-AC-GFP vector (HEK293-Vector) cells were used as a mock-transfection group.
Intracellular calcium mobilization was measured using the Calcium Flux Assay Kit (Cat. ab233472, abcam) in response to different concentrations of each peptide. The percentage increase was calculated relative to basal fluorescence intensity. The experiment was performed in triplicate.

HEK293-GnRHR cells [3] = molecular target: T1, HEK293-GnRHR cells; assay: CRE-luciferase reporter assay; format: cell-based
Procedure: as §2
The HEK293-pCMV6-AC-GFP and HEK293-GnRHR cells (4×10^4 cells/well) were grown in 96-well plates and co-transfected with a luciferase reporter plasmid containing a cAMP response element (CRE) using Lipofectamine 3000 (Life Technologies). The transfected cells were exposed to different concentrations of peptide for 24 h, and the promoter activity was measured by a dual-luciferase reporter assay system (BPS Bioscience). The firefly and Renilla luciferase activities were measured using a microplate luminometer (Thermo, Varioskan LUX Multimode Microplate Reader). The calculation of relative luciferase activities involved the normalization of the firefly luciferase activity […].

Question: What does the source list for CCNC(=O)[C@@H]1CCCN1C(=O)[C@@H](NC(=O)[C@H](Cc1ccccc1)NC(=O)[C@H](CCCNC(=N)N)NC(=O)[C@H](CC(C)C)NC(=O)[C@H](CCCNC(=N)N)NC(=O)[C@H](Cc1ccc(O)cc1)NC(=O)[C@H](CO)NC(=O)[C@H](Cc1c[nH]c2ccccc12)NC(=O)[C@H](Cc1c[nH]cn1)NC(=O)[C@@H]1CCC(=O)N1)[C@@H](C)CC [HS1002]?
Answer: Cytotoxicity (IC50) A549 (A549): 7.94 ± 0.07 µg/mL; Cytotoxicity (IC50) DU145 (DU145): 5.23 ± 0.65 µg/mL; Cytotoxicity (IC50) PC3 (PC3): 7.56 ± 0.61 µg/mL; Cytotoxicity (IC50) SKOV3 (SKOV3): 4.91 ± 0.41 µg/mL; expression of p-AKT [1]: significantly downregulated; expression of p-ERK1/2 [1]: significantly downregulated; expression of p-mTOR [1]: significantly downregulated; expression of AKT, ERK1/2, and mTOR ([1]; total proteins): unchanged; calcium flux (HEK293-GnRHR cells [2]; 100 nM): increased calcium flux in HEK293-GnRHR cells; calcium flux (HEK293-GnRHR cells [2]; 1 and 10 nM): increased calcium flux; CRE-luciferase activity compared to the control (HEK293-GnRHR cells [3]; 10 μM): 2 fold; cAMP-mediated promoter binding activity (CRE-luciferase), concentration dependence (HEK293-GnRHR cells [3]; 24 h): concentration-dependently enhanced

Reference: patent publication US20240247031A1, “COMPOSITION FOR TREATING CANCER CONTAINING TELOMERASE-TARGETING GNRH ANTAGONIST-DERIVED PEPTIDE HS1002” (Research & Business Foundation Sungkyunkwan University, priority 2023, published 2024)
